± gives the expanded uncertainty stated by the source.
How the values were obtained:
[1] = 344.15 K; for mass density: Vibrating tube method; for surface tension liquid-gas: Pendant drop shape
[2] = 344.15 K, Liquid, pendant drop shape

| Structure (SMILES) | mass density ([1]; 101.33 kPa, Gas) [kg/m3] | mass density ([1]; 101.3 kPa, Liquid) [kg/m3] | surface tension liquid-gas ([1]; Liquid) [mN/m] | interfacial tension ([2]; 100 kPa) [mN/m] | interfacial tension ([2]; 1000 kPa) [mN/m] | interfacial tension ([2]; 2000 kPa) [mN/m] | interfacial tension ([2]; 3000 kPa) [mN/m] | interfacial tension ([2]; 4000 kPa) [mN/m] | interfacial tension ([2]; 5000 kPa) [mN/m] | interfacial tension ([2]; 6000 kPa) [mN/m] | interfacial tension ([2]; 7000 kPa) [mN/m] | interfacial tension ([2]; 8000 kPa) [mN/m] | interfacial tension ([2]; 9000 kPa) [mN/m] | interfacial tension ([2]; 10000 kPa) [mN/m] | interfacial tension ([2]; 11000 kPa) [mN/m] | interfacial tension ([2]; 12000 kPa) [mN/m] | interfacial tension ([2]; 13000 kPa) [mN/m] | interfacial tension ([2]; 14000 kPa) [mN/m] |
| --- | --- | --- | --- | --- | --- | --- | --- | --- | --- | --- | --- | --- | --- | --- | --- | --- | --- | --- |
| O=C=O [carbon dioxide] | 1.563 ± 0.032 |  |  |  |  |  |  |  |  |  |  |  |  |  |  |  |  |  |
| CCCCCCCCCCCC [dodecane] |  | 712.1 ± 0.22 | 20.72 ± 0.24 |  |  |  |  |  |  |  |  |  |  |  |  |  |  |  |
| CCCCCCCCCCCC [dodecane] + O=C=O |  |  |  | 20.72 ± 0.02 | 18.54 ± 0.02 | 16.53 ± 0.02 | 14.74 ± 0.02 | 13.03 ± 0.02 | 11.31 ± 0.02 | 9.57 ± 0.02 | 7.82 ± 0.02 | 6.12 ± 0.02 | 4.57 ± 0.02 | 3.24 ± 0.02 | 2.26 ± 0.02 |  |  |  |
| CCCCCCCCCCCCCC [tetradecane] |  | 727.1 ± 0.22 | 22.07 ± 0.25 |  |  |  |  |  |  |  |  |  |  |  |  |  |  |  |
| CCCCCCCCCCCCCC [tetradecane] + O=C=O |  |  |  | 22.07 ± 0.02 | 20.41 ± 0.02 | 18.55 ± 0.02 | 16.7 ± 0.02 | 14.87 ± 0.02 | 13.06 ± 0.02 | 11.31 ± 0.02 | 9.61 ± 0.02 | 8 ± 0.02 | 6.48 ± 0.02 | 5.07 ± 0.02 | 3.78 ± 0.02 | 2.63 ± 0.02 | 1.64 ± 0.02 | 0.82 ± 0.02 |
| CCCCCCCCCCCCC [tridecane] |  | 720.2 ± 0.22 | 21.56 ± 0.24 |  |  |  |  |  |  |  |  |  |  |  |  |  |  |  |
| CCCCCCCCCCCCC [tridecane] + O=C=O |  |  |  | 21.56 ± 0.02 | 19.68 ± 0.02 | 17.65 ± 0.02 | 15.67 ± 0.02 | 13.77 ± 0.02 | 11.94 ± 0.02 | 10.18 ± 0.02 | 8.52 ± 0.02 | 6.95 ± 0.02 | 5.49 ± 0.02 | 4.13 ± 0.02 | 2.89 ± 0.02 | 1.77 ± 0.02 | 0.78 ± 0.02 |  |
